Test results published in a melting point compilation (Tetko et al.; mined from patent text by program, amines drawn as free bases though some values may be those of a salt).

melting point [°C] | SMILES
58 to 62 | C=C(C(=O)OC)N(Cc1cc(C)ccc1NC(=O)c1ccccc1)S(=O)(=O)c1ccc(OC)cc1
108 to 111 | Cc1ccc(S(=O)(=O)CCCc2c[nH]c([N+](=O)[O-])n2)cc1
75 to 77 | Cc1ccccc1Sc1cccc(CO)c1O
235 | CCNC(=O)Nc1cnc2ccc(Nc3ccc(C)cc3)nc2n1
217 to 219 | O=C(NC(=O)c1cccs1)NC1CCNC(Cc2ccc3ccccc3c2)C1 (stereo unspecified)
170 to 171 | CC(C)Cn1c(=O)n(C)c(=O)c2c(C#CCCO)n(Cc3cccc4ccccc34)cc21
275 to 277 | O=C(c1ccccc1)N1CCc2c(c(=O)[nH]c3ccccc23)C1
177 to 179 | Cc1ccc(S(=O)(=O)OCCCn2c3c(c4ccccc4c2=O)C(=O)c2ccccc2-3)cc1
148 to 150 | CCSc1cc(C)nc(SCC)c1NC(=O)CCCSc1nc2cccc(C(F)(F)F)c2o1
139 to 141 | CC(=O)CC(=O)N[C@H](CF)[C@H](O)c1ccc(S(C)(=O)=O)cc1
96 to 98 | CCOc1ccc(O)c(C(C)(C)C)c1
165 to 168 | COC(=O)c1cc2scc(Br)c2nc1C(=O)OC
144 to 145 | Cc1ccc2c(c1)CCCN2CC(NS(=O)(=O)c1c(Cl)cc(Cl)cc1Cl)C(C)C (stereo unspecified)
186 to 187 | Cc1ccc(NC(=O)c2ccc(C(=O)Nc3ccccc3NC(=O)OC(C)(C)C)nc2)cc1Nc1nccc(-c2cccnc2)n1
75 to 79 | O=C1CCC(c2ccccc2)(C2CCNC2)CC1 (stereo unspecified)
145 to 146 | C=CC(=O)c1c(-c2ccccc2)[nH]c2ccccc12
134 to 137 | c1ccc2nc(COc3ccc4[nH]ccc4c3)ccc2c1
211 | Cc1cc(C#N)cc(C(=O)Nc2nc(C)cs2)n1
189 to 191 | Cc1ccc(C(=O)Nc2nc3ccccc3c(=O)n2C)cc1
240 to 250 | O=C(Nc1ccccc1)N(CCCn1ccnc1)C1=Nc2cccc3cccc1c23
197 to 200 | Oc1ccc(-c2noc(C3CC3)c2-c2ccccc2)cc1
109 to 110 | COC(=O)C(C)(Cc1c[nH]c2ccc(OC)cc12)[N+](=O)[O-] (racemic)
83 to 84 | CCCCCCCCCCCC(=O)NCc1ccsc1
131 to 133 | CCC1(CCCCCl)C(=O)Nc2cc(F)c(Cl)cc21 (stereo unspecified)

melting point [°C] | SMILES
167 to 169 | Cc1ccncc1Cn1nnnc1-c1ccc(Cl)c(Cl)c1
115 to 120 | Clc1cc(Cl)c(C#C[Si](c2ccccc2)(c2ccccc2)c2ccccc2)c(Cl)c1
264 to 266 | CC(=O)OCC1OC(n2c3ccccc3c3c4c(c5c6cccnc6[nH]c5c32)C(=O)N(CO)C4=O)C(OC(C)=O)C(OC(C)=O)C1OC(C)=O (stereo unspecified)
264 to 267 | COCCNS(=O)(=O)c1ccc2[nH]c(=O)c(=O)[nH]c2c1
187 to 191 | CC12CCC3c4cc(OCC(F)(F)F)c(O)cc4C(=NO)CC3C1CCC2O (stereo unspecified)
115 to 117 | CCOC(=O)Cc1sc(Sc2cc3ccccc3c(Cl)n2)nc1C
109 to 110 | O=C(NC1CCCCC1=Cc1ccccc1)C(F)(F)F (stereo unspecified)
276 to 279 | CC(=O)Nc1ccc2c(c1)c(C1=C(c3cn(C)c4ccccc34)C(=O)NC1=O)cn2C
129 | CCC(=O)C1=C(O)CC(c2ccc3c(c2)OCO3)CC1=O (stereo unspecified)
> 315 | O=c1oc2cc(O)c(O)c([N+](=O)[O-])c2cc1-c1nnn[nH]1
188 to 190 | COC(=O)C1=C(C)NC(=S)N(S(C)(=O)=O)C1c1cccc([N+](=O)[O-])c1 (stereo unspecified)
186 to 189 | O=C(Cc1csc(-c2cnccn2)n1)NC1CCN(Cc2ccc(Cl)c(Cl)c2)CC1
150 to 151 | Nc1ccc2c(c1)S(=O)(=O)N(CCCCN1CCN(c3ncccn3)CC1)C2=O
58 to 61 | Cc1ccc(SC(CCCCCc2ccc(Cl)cc2)C(=O)O)cc1 (stereo unspecified)
198 to 201 | C[C@]1(COc2ccc(N3CCN(Cc4ccc(N5CCC(Oc6ccc(OC(F)(F)F)cc6)CC5)cc4)CC3)cc2)Cn2cc([N+](=O)[O-])nc2O1
123 to 125 | O=C(NCCCn1ccnc1)Nc1ccc(Cl)cc1
55 to 65 | CCOC(=O)C(C)(C)Oc1ccc(C=Cc2ccccc2)cc1
279 to 281 | Cc1nc2nn(-c3ccccc3)c(N)c2c(=O)[nH]1
204 to 205 | CNCc1ccc2nc(NC(=O)c3ccc(C(C)(C)C)cc3)cn2c1
86 to 88 | CCN(C(=O)OC(C)(C)C)n1c(C)nc(N2CCc3ccccc3CC2)c(C#N)c1=O
138 to 141 | COc1ccccc1N1CCN([C@@H]2Cc3c(cccc3OC)C[C@H]2O)CC1 (relative stereo)
128 to 130 | CSc1c(C(=O)O)ccc(Br)c1Cl
123 to 125 | CCCNC(=O)C(Cc1ccc2c(c1)c(Cc1ccc(C(=O)OC)cc1OC)cn2CCC)C(C)C (stereo unspecified)
51 to 52.5 | COc1cc(C#N)ccc1C

melting point [°C] | SMILES
144 to 145 | Cc1nc(N2CCN(CC3CC3)C2=O)sc1C(=O)NCc1cncc(F)c1
216 to 217 | COc1sc(-c2ccc(NS(=O)(=O)c3sc4ccc(F)cc4c3C)c(S(C)(=O)=O)c2)nc1C
138 | C#Cc1cnn2c(C(F)(F)F)cc(-c3ccc(C(F)(F)F)cc3)nc12
100 to 102 | COc1c(Br)cc(Br)cc1C1(C#N)CCCCC1
103 to 104 | Cc1ccc(CSc2nc3cscc3n2C(=O)OCc2ccccc2)nc1
163 | CC(=O)n1cc(C2=CCN(CCCN3c4cccc5cccc(c45)S3(=O)=O)CC2)c2ccccc21
92 to 94 | CCN1CCc2c([nH]c3ccccc23)C1CNC(=O)OCc1ccccc1 (stereo unspecified)
220 to 221 | CN(C)S(=O)(=O)c1cc2c(c(C(=O)O)c1)OCCO2
130 to 132 | O=C(CCCCCN1C(=O)c2ccc([N+](=O)[O-])cc2C1=O)NO
213 to 215 | Oc1cc(C2CC2)[nH]n1
298 to 305 | Cc1cscc1NC(=S)Nc1cccc(Cl)c1N
154 to 156 | CCC1=C(c2ccccc2)C(c2ccccc2)=C(CC)C1=C(C#N)C#N
166 to 168 | Cc1cccc(CSc2nc3cnccc3[nH]2)c1
131 to 133 | CN(CC(=O)NO)C(=O)[C@H]1CCCC[C@H]1C(=O)O (relative stereo)
218 to 224 | CON=C(C)c1cccc(NC(=O)NCC(=O)N(C)c2ccc(Cl)c(COc3cccc4ccc(C)nc34)c2Cl)c1
168 to 170 | CC(C)(OCc1nn(Cc2ccccc2)c2ccc(Br)cc12)C(=O)O
168 to 170 | Cc1ccc(C)c(CN2CCN(C)CC(NC(=O)c3n[nH]c4ccccc34)C2)c1 (stereo unspecified)
99 to 100 | CCOC(=O)C1CCNC(=O)C1=NCCc1ccccc1 (stereo unspecified)
177 | CCOC(=O)N1CCC(Nc2nc3cncnc3n2C2CC2)CC1
80 to 81 | Cc1cc(C)c(C=O)c(-c2ccc(Cl)c(Cl)c2)c1
145 to 147 | CCC(=O)NCCC1c2cc(OC)ccc2-c2ccc3c(c21)OCO3 (stereo unspecified)
99 to 100 | CCCCC(CC)n1c(CC)nc2c(-c3c(C)cc(C)cc3C)ncnc21 (stereo unspecified)
134 | CN1CC(=O)N(c2cc(Cl)nc(Cl)c2)C1=O
161 to 162 | O=C(NCCN1CCC(Oc2ccc(Cl)c(Cl)c2)CC1)c1nnc(Nc2ccccc2Cl)o1

melting point [°C] | SMILES
214 to 215 | CC1(C)OC(=O)Nc2ncc(-c3cccc(Cl)c3)cc21
152 to 154 | O=C(O)C(=O)N1CCC(Cc2ccc(F)cc2)CC1
184 to 185 | Cc1cccc(C(=O)Nc2c[nH]nc2C(=O)NCC(O)Cc2ccccc2)n1 (stereo unspecified)
166 | NC1=NCC(COc2ccccc2[N+](=O)[O-])O1 (stereo unspecified)
154 to 156 | Cc1onc(CCc2ccccc2)c1C(=O)O
169 to 170 | CC1(C(=O)O)CCc2c(-c3ccc(Cl)cc3)noc2C1 (stereo unspecified)
119 to 120 | O=C(O)C1=CCN(c2ncccc2F)CC1
300 | O=c1[nH]c(=O)c2nc3ccccc3nc2[nH]1
157 to 158 | Cc1oc(-c2ccccc2)nc1CCOc1ccc(CCCCCC2OC(=O)NC2=O)cc1 (stereo unspecified)
112 to 114 | CC(=O)OCC(OC(C)=O)C(OC(C)=O)C(OC(C)=O)C(C=O)OC(C)=O (stereo unspecified)
175 to 178 | CC(=O)Oc1cc([N+](=O)[O-])ccc1CN1C(=O)c2ccccc2C1=O
139 to 141 | O=C(O)CCC1CNC(=O)CC1c1ccc(F)cc1 (stereo unspecified)
163 to 165 | O=C(NNc1ccc(C(F)(F)F)cc1)c1ccccc1F
200 to 202 | Cc1ccc(C2CCN(C(=O)Nc3ccc4nc(CN5C(C)(C)CCCC5(C)C)ccc4c3)CC2)cc1
218 | O=C(O)c1ccc(C#Cc2cc(C#Cc3ccc(C(=O)O)cc3)cc(C#Cc3ccc(C(=O)O)cc3)c2)cc1
212 to 214 | CCCNC(=O)CCn1cnc2c(N)nc3ccccc3c21
127 to 131 | CCOC(=O)C(C)c1ccc2c(c1)sc1nc(=O)cc(-c3ccccc3)n12 (stereo unspecified)
152 to 154 | O=C(NC1CCCc2sccc21)N1CCOCC1 (stereo unspecified)
178 | CC=Cc1cn(C2CC(O)C(CO)O2)c(=O)[nH]c1=O (stereo unspecified)
113 to 115 | COc1ccc(-c2cc(C#N)nnc2-c2ccc(OC)cc2)cc1
196 | COc1ccc(CN2CC(=O)Nc3ccc(OC)cc3C2=O)c(OC)c1

SMILES | melting point [°C]
C[C@@H]1N=C(c2ccccc2)c2cc(NC(=O)CCCCCCC(=O)O)ccc2N(C)C1=O | 87 to 88
O=Cc1cn(CCCCO)c2ncccc12 | 90
COc1ccc(-n2c(CF)nc3ccc(N)cc3c2=O)c(C)c1 | 200 to 202
CCCCOC(=O)c1ccccc1OC(=O)N(C)SN(C)C(=O)ON=C(C)SC | 68 to 74
O=C(CCl)Cc1ccc(Cl)cc1 | 40.5 to 45.5
CCC[C@H]1CC[C@H](CCc2cc(F)c(C#N)c(F)c2)CC1 | 27.3
O=C(Nc1ccc(Cl)cc1)NC1N=C(c2ccccc2)c2ccccc2-n2cnnc21 (stereo unspecified) | 294 to 296
Clc1cc2nc(Cl)c(N3CCNCC3)nc2cc1Cl | > 300
